Laboratory results from patent US20240307361A1, “METHOD FOR DIAGNOSING AND TREATING IRRITABLE BOWEL SYNDROME” (Centre for Chinese Herbal Medicine Drug Development Limited, priority 2023, published 2024).

What was measured:
TAAR1 [1] = biological target: T1, TAAR1 (Mus musculus, UniProt Q923Y8); test: EPPTB on phenethylamine-induced 5-HT elevation in mice intestine tissues cultured ex vivo; format: cell-based; conditions: EPPTB 50 μM, p<0.05, FIG. 5I
T1 construct: is expressed in EC cells in the GI tract; from tissue; host or cells: living mice (conventional, antibiotic-treated, or wild-type littermates of Taar1 KO, C57Bl/6J)
T1 sequence (Q923Y8 whole entry): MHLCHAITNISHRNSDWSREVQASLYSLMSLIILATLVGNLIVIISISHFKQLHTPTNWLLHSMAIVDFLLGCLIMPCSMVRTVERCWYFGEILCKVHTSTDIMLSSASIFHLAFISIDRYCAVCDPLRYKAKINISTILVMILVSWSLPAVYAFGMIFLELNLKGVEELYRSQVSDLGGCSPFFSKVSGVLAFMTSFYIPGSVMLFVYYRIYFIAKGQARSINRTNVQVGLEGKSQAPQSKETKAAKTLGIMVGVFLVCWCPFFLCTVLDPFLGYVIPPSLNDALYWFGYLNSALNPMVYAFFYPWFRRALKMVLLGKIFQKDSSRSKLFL
Protocol: Mouse and human colonic tissues were collected as previously described. To investigate the effects of phenethylamine on 5-HT levels in mouse and human colon tissues, the colonic tissues were cut into small pieces (0.5 cm) and placed in a 12-well cell culture plate. Colon pieces were added to DMEM/F12 medium containing 5% fetal bovine serum, penicillin-streptomycin (1×), and gentamycin (20 μg/ml), followed by treatment with phenethylamine and EPPTB, as indicated. Colon pieces were incubated at 37° C. with 5% CO2 and 95% air. A 200 μL volume of medium was collected from each well at the indicated time points for the analysis of 5-HT.

TAAR1 [2] = biological target: T1, TAAR1; test: TAAR1 antagonist EPPTB in phenethylamine-treated mice; format: in vivo; conditions: EPPTB 10 mg/kg, phenethylamine 10 mg/kg, p<0.05
Protocol: To study phenethylamine and tryptamine effects on 5-HT production, phenethylamine and tryptamine at a dosage of 2 mg/kg, 5 mg/kg and 10 mg/kg (dissolved in 0.5% CMC-Na, sodium carboxymethyl cellulose) were administered to mice by oral gavage. Mice treated with/without phenethylamine and tryptamine were sacrificed under isoflurane anesthesia. Biological samples including serum, duodenum, ileum, proximal colon and distal colon tissues and luminal contents in each intestinal segments were collected at indicated dosages and times and stored at −80° C. until analysis.
(§1) For the fecal pellet water content test, 1.5 mL Eppendorf tubes were pre-weighed and used to collect fecal pellets from mice immediately after defecation. The tubes were then closed to measure wet weight. Afterward, the tubes were opened and placed in an oven at 60° C. overnight to measure the dry weight. Fecal pellet water content was measured by subtracting the dry weight from the wet weight and normalizing it to the wet pellet mass. Fecal pellets from mice were also counted within 2 h of the defecation frequency test.
(§2) Carmine red assay: Mice were administered 300 μL of 6% carmine red solution (prepared by 0.5% methylcellulose) by oral gavage to measure the GI transit time after treatment with phenethylamine at the indicated dosages. The mice were placed on white sheet paper to track the red pellet in their cages after oral gavage. The total time taken for the appearance of the first red pellet after oral gavage was recorded as gut transit time.
Colonic tissues were lysed in RIPA buffer containing protease inhibitor cocktails in a tissuelyzer. The tissue lysates were centrifuged at 15,000 rpm for 15 min at 4° C. and quantified by BCA kit for protein concentration. The protein content normalized supernatant was mixed with 5× loading buffer and heated at 98° C. in a dry bath for 10 min. The samples were evaluated according to the western blotting protocol (Abcam). The blots were incubated with HRP-conjugated anti-rabbit IgG or anti-mouse IgG and reacted with enhanced chemiluminescence.

TAAR1 [3] = biological target: T1, TAAR1; test: EPPTB in antibiotic-treated mice colonized with R. gnavus (ATCC 29149); format: in vivo; conditions: EPPTB 10 mg/kg, p<0.05
Protocol: A broad-spectrum antibiotic mixture (ABX) containing vancomycin (100 mg/kg), neomycin (200 mg/kg), metronidazole (200 mg/kg), and ampicillin (200 mg/kg) was used to establish an antibiotic-treated mouse model. Briefly, the antibiotic mixture was administered to mice by oral gavage for 10 consecutive days prior to fecal microbial transplantation (FMT) or the colonization study.
R. gnavus (strain ATCC 29149) was first grown on tryptic soy broth (TSB) agar plates and cultured in TSB broth using a single colony. R. gnavus (strain ATCC 29149) was collected from the medium by centrifuging at 3,500 rpm for 10 min at room temperature. These bacterial strains were then reconstituted in 200 μL of sterilized phosphate-buffered saline and administered to antibiotic-treated mice by oral gavage. Fecal samples were collected daily to measure fecal phenethylamine levels in antibiotic-treated mice before and after oral administration of bacterial strains.
as §1, §2

TAAR1 [4] = biological target: T1, TAAR1; test: EPPTB in antibiotic-treated mice transplanted with IBS-D fecal microbiota (FMT); format: in vivo; conditions: EPPTB 10 mg/kg, p<0.05
Protocol: A broad-spectrum antibiotic mixture (ABX) containing vancomycin (100 mg/kg), neomycin (200 mg/kg), metronidazole (200 mg/kg), and ampicillin (200 mg/kg) was used to establish an antibiotic-treated mouse model. Briefly, the antibiotic mixture was administered to mice by oral gavage for 10 consecutive days prior to fecal microbial transplantation (FMT) or the colonization study. For the fecal pellet water content test, 1.5 mL Eppendorf tubes were pre-weighed and used to collect fecal pellets from mice immediately after defecation. The tubes were then closed to measure wet weight. Afterward, the tubes were opened and placed in an oven at 60° C. overnight to measure the dry weight. Fecal pellet water content was measured by subtracting the dry weight from the wet weight and normalizing it to the wet pellet mass. Fecal pellets from mice were also counted within 2 h of the defecation frequency test. Carmine red assay: […] The mice were placed on white sheet paper to track the red pellet in their cages after oral gavage. The total time taken for the appearance of the first red pellet after oral gavage was recorded as gut transit time. Fecal samples from IBS-D patients and HC participants (n=8/group) were prepared as suspensions in PBS at a concentration of (100 mg/mL). […] After the FMT, GI transit, stool consistency, and defecation frequency were measured. […]

## CCOc1cccc(NC(=O)c2ccc(N3CCCC3)c(C(F)(F)F)c2)c1 [EPPTB, N-(3-ethoxy-phenyl)-4-pyrrolidin-1-yl-3-trifluoromethyl-benzamide]
TAAR1 [1]
  phenethylamine-induced 5-HT elevation in mice intestine tissues cultured ex vivo: suppressed
TAAR1 [2]; mice
  phenethylamine-induced 5-HT production: suppressed
  phenethylamine-induced 5-HTP/Trp and 5-HT/5-HTP ratios: inhibited by EPPTB treatment
  phenethylamine-induced GI transit acceleration: suppressed
  phenethylamine-induced colonic secretion increase: suppressed
  phenethylamine-induced increased levels of serum 5-HTP: inhibited by EPPTB treatment
TAAR1 [2]; proximal colonic tissues of mice
  phenethylamine-induced activation of PKA and CaMKII: inhibited
TAAR1 [3]
  R. gnavus-induced 5-HT elevation in serum: suppressed by EPPTB treatment
  R. gnavus-induced accelerated GI transit: suppressed by EPPTB treatment
  R. gnavus-induced increased fecal water content: suppressed by EPPTB treatment
TAAR1 [4]
  pathological changes induced by transplantation of IBS-D fecal microbiota (colonic 5-HT, GI transit, defecation frequency): largely suppressed
